Source: patent publication US20160075653A1, “NEMATICIDAL N-(PHENYLCYCLOALKYL)CARBOXAMIDES AND N-(PHENYLCYCLOALKYL)THIOCARBOXAMIDES” (BAYER CROPSCIENCE AKTIENGESELLSCHAFT, priority 2013, published 2016)
Read-outs that look alike come from different tables or passages of the source.

Tests used:
Cooperia curticei = Cooperia curticei test (COOPCU), larval mortality; assay type: in vivo; details: for activity (larval mortality): application rate 4 ppm, after 5 days; for mortality at 20 ppm: Cooperia curticei, 120 h, read-out: activity (larval mortality)
Experimental: Cooneria curtice—Test (COOPCU) Solvent: dimethyl sulfoxide
(§1) To produce a suitable preparation of active compound, 10 mg of active compound are dissolved in 0.5 ml solvent, and the concentrate is diluted with “Ringer's solution” to the desired concentration.
Approximately 40 nematode larvae (Cooperia curticei) are transferred into a test tube containing the compound solution.
After 5 days percentage of larval mortality is recorded. 100% efficacy means all larvae are killed; 0% efficacy means no larvae are killed.

[1] = Measurement of log P values by HPLC on reversed phase columns (methods [a] pH 2.3, [b] pH 2.7, [c] pH 7.8); assay type: physicochemical; details: for chromatographic logP: reversed phase HPLC columns, read-out: logP
In short: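 Determined per EEC Directive 79/831 Annex V.A8 by reversed-phase HPLC, 10-95% acetonitrile gradient: [a] pH 2.3, 0.1% phosphoric acid; [b] LC-MS, pH 2.7, 0.1% formic acid; [c] LC-MS, pH 7.8, 0.001 molar ammonium hydrogen carbonate. Calibrated with C3-C16 alkan-2-ones by retention-time interpolation.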

Boophilus microplus = Boophilus microplus injection test (BOOPMI Inj); assay type: in vivo; details: application rate 20 μg/animal, injection into abdomen of adult engorged female ticks, after 7 days
Experimental: Boonhilus micronlus—Injectiontest (BOOPMI Inj)
Solvent: dimethyl sulfoxide
To produce a suitable preparation of active compound, 10 mg of active compound are dissolved in 0.5 ml solvent, and the concentrate is diluted with solvent to the desired concentration.
Five adult engorged female ticks (Boophilus microplus) are injected with 1 μl compound solution into the abdomen. Ticks are transferred into replica plates and incubated in a climate chamber.
After 7 days the egg deposition of fertile eggs is monitored. Eggs where fertility is not visible are stored in a climate chamber till hatching after about 42 days. An efficacy of 100% means that all eggs are infertile; 0% means that all eggs are fertile.

Meloidogyne incognita = Meloidogyne incognita test (MELGIN), gall formation on salad seedlings; assay type: in vivo; details: application rate 20 ppm, after 14 days
In short: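 Sand vessels treated with acetone-formulated compound diluted in water, then inoculated with M. incognita eggs and larvae and sown with salad seeds. Root galling assessed after 14 days: 100% = no galls, 0% = galling equal to untreated plants.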

Haemonchus contortus = Haemonchus contortus test (HAEMCO), larval mortality; assay type: in vivo; details: 120 h, read-out: activity (larval mortality)
Experimental: Haemonchus contortus—Test (HAEMCO) Solvent: dimethyl sulfoxide
as §1
Approximately 40 larvae of the red stomach worm (Haemonchus contortus) are transferred into a test tube containing compound solution.
After 5 days percentage of larval mortality are recorded. 100% efficacy means all larvae are killed, 0% efficacy means no larvae are killed.

[2] = HPLC reversed phase, method [b] (pH 2.7)
[3] = HPLC on reversed phase columns, method [b], pH 2.7
[4] = pH 2.7, HPLC reversed phase, method [b] (pH 2.7)
[5] = HPLC on reversed phase column, method [b], pH 2.7
[6] = method [b], HPLC reversed phase, pH 2.7

| SMILES | logP [1, 2] | nematicidal activity (percentage of gall formation; 100% = no galls) (Meloidogyne incognita) | further results |
| --- | --- | --- | --- |
| O=C(NC1CCC1c1ccc(Cl)cc1Cl)c1ccccc1 (stereo not drawn) [Compound 451] | 3.30^[b] | – | activity (larval mortality) (Cooperia curticei): 90% |
| O=C(N[C@@H]1C[C@@H]1c1ccc(Cl)cc1Cl)c1ccccc1Br (relative stereo) [Compound 579] | 3.32^[b] | – | activity (larval mortality) (Cooperia curticei): 80% |
| Cc1nn(C)c(F)c1C(=O)N[C@@H]1C[C@H]1c1ccccc1Cl (relative stereo) [Compound 49] | – | – | activity (efficacy: infertile eggs) (Boophilus microplus): 80%; logP [1, 3]: 2.40^[b] |
| O=C(N[C@@H]1CC[C@@H]1c1ccc(Cl)cc1Cl)c1ccccc1I [Compound 456] | – | 100% | mortality at 20 ppm (Haemonchus contortus): 100%; mortality at 20 ppm (Cooperia curticei): 100%; chromatographic logP [1, 4]: 3.75 |
| O=C(N[C@@H]1CC[C@@H]1c1c(F)cccc1F)c1ccccc1C(F)(F)F [Compound 513] | – | 100% | mortality at 20 ppm (Haemonchus contortus): 90%; mortality at 20 ppm (Cooperia curticei): 80%; chromatographic logP [1, 4]: 3.15 |
| O=C(N[C@@H]1CC[C@@H]1c1ccccc1C(F)(F)F)c1cccnc1Cl [Compound 621] | – | 100% | mortality at 20 ppm (Haemonchus contortus): 90%; mortality at 20 ppm (Cooperia curticei): 100%; chromatographic logP ([1]; pH 2.7, HPLC on reversed phase column, method [b], pH 2.7): 2.64 |
| CCCOc1ccccc1C(=O)N[C@@H]1CCC[C@@H]1c1ccc(F)c(F)c1 (relative stereo) [Compound 86] | – | 90% | logP [1, 3]: 4.19^[b] |
| O=C(N[C@@H]1CC[C@@H]1c1cccc(F)c1C(F)(F)F)c1c(F)cccc1F (relative stereo) [Compound 639] | – | 100% | logP [1, 5]: 3.08^[b] |
| O=C(NC1CCC1c1ccccc1C(F)(F)F)c1cccnc1C(F)(F)F (stereo not drawn) [Compound 235] | – | 100% | logP [1, 6]: 2.94^[b] |
| O=C(N[C@@H]1CC[C@H]1c1ccc(F)cc1C(F)(F)F)c1cccnc1C(F)(F)F (relative stereo) [Compound 487] | 3.20^[b] | 90% | – |
| O=C(N[C@@H]1CC[C@@H]1c1ccc(F)cc1C(F)(F)F)c1ccccc1I (relative stereo) [Compound 503] | 3.50^[b] | 100% | – |
| O=C(N[C@@H]1CC[C@@H]1c1ccc(F)cc1C(F)(F)F)c1cccnc1C(F)(F)F (relative stereo) [Compound 489] | 3.02^[b] | 100% | – |
| O=C(NC1CCC1c1ccc(Cl)cc1Cl)c1c(F)cccc1F (stereo not drawn) [Compound 473] | 3.36^[b] | 90% | – |
| O=C(N[C@@H]1CC[C@@H]1c1cccc(F)c1C(F)(F)F)c1ccccc1C(F)(F)F (relative stereo) [Compound 589] | 3.38^[b] | 100% | – |
| O=C(N[C@@H]1CC[C@@H]1c1c(F)cccc1C(F)(F)F)c1ccccc1Cl (relative stereo) [Compound 553] | 3.42^[b] | 100% | – |
| O=C(N[C@@H]1CC[C@@H]1c1cccc(F)c1C(F)(F)F)c1cccnc1C(F)(F)F (relative stereo) [Compound 641] | – | 100% | logP [1, 5]: 2.97^[b] |

| SMILES | logP [1, 2] | nematicidal activity (percentage of gall formation; 100% = no galls) (Meloidogyne incognita) | further results |
| --- | --- | --- | --- |
| O=C(N[C@@H]1CC[C@@H]1c1c(F)cccc1C(F)(F)F)c1ccccc1C(F)(F)F (relative stereo) [Compound 585] | 3.60^[b] | 100% | – |
| O=C(NC1CCC1c1ccccc1C(F)(F)F)c1ccccc1Cl (stereo not drawn) [Compound 432] | 3.30^[b] | 100% | – |
| O=C(NC1CC1c1ccc(Cl)cc1Cl)c1sccc1I (stereo not drawn) [Compound 212] | – | 100% | logP [1, 6]: 4.10^[b]; logP ([1]; method [c], HPLC reversed phase, pH 7.8): 4.04^[c]; |
| O=C(NC1CCC1c1ccccc1C(F)(F)F)c1ccccc1C(F)(F)F (stereo not drawn) [Compound 434] | 3.44^[b] | 90% | – |
| O=C(N[C@@H]1CC[C@@H]1c1c(F)cccc1C(F)(F)F)c1nccnc1Cl (relative stereo) [Compound 576] | 3.02^[b] | 100% | – |
| O=C(NC1CCC1c1cc(F)ccc1C(F)(F)F)c1cccc(Cl)c1 (stereo not drawn) [Compound 517] | 3.65^[b] | 100% | – |
| O=C(N[C@@H]1CC[C@@H]1c1cc(F)ccc1C(F)(F)F)c1sccc1I (relative stereo) [Compound 570] | 3.79^[b] | 100% | – |
| O=C(NC1CCC1c1ccc(Cl)cc1Cl)c1ccccc1C(F)(F)F (stereo not drawn) [Compound 476] | 3.72^[b] | 90% | – |
| O=C(NC1CCCC1c1ccccc1Br)c1ccccc1Cl (stereo not drawn) [Compound 349] | 3.52^[b] | 90% | – |
| O=C(NC1CCCC1c1ccccc1Br)c1cccnc1Cl (stereo not drawn) [Compound 348] | 2.80^[b] | 90% | – |
| O=C(N[C@@H]1C[C@@H]1c1ccc(Cl)cc1Cl)c1nccnc1C(F)(F)F (relative stereo) [Compound 566] | 3.11^[b] | 90% | – |
| O=C(NC1CCC1c1ccc(Cl)cc1Cl)c1ccccc1Br (stereo not drawn) [Compound 472] | 3.60^[b] | 90% | – |
| O=C(N[C@@H]1CC[C@@H]1c1cc(F)ccc1C(F)(F)F)c1ccccc1Cl (relative stereo) [Compound 528] | 3.34^[b] | 100% | – |
| O=C(N[C@@H]1CC[C@@H]1c1c(F)cccc1C(F)(F)F)c1sccc1I (relative stereo) [Compound 584] | 4.00^[b] | 100% | – |
| O=C(NC1CCC1c1ccccc1C(F)(F)F)c1ccccc1 (stereo not drawn) [Compound 426] | 3.08^[b] | 100% | – |
